Results as given in patent publication US8263606B2 (Xenon Pharmaceuticals Inc., priority 2008, dated 2012).

Tests used:
[1] = system: sodium channel; assay: Guanidine influx assay (14C-guanidine radiotracer flux, in vitro); type: cell-based, human or rat; settings: guanidine influx assay using a known cell line that expresses a sodium channel
Method in brief: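 Human or rat sodium channels stably expressed in endogenous or recombinant cells, plated ~100,000 cells/well for 20-24 h at 37 °C. Cells were treated with test agent in low-sodium choline HEPES saline plus aconitine and 14C-guanidine at ambient temperature, washed, and counted by scintillation; IC50 from 4-parameter logistic fit.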

[2] = molecular target: CYP3A4 (Homo sapiens, UniProt P08684); assay: Cytochrome P450 (CYP450) Inhibition Assay, CYP3A4 (Vivid fluorescence, BOMCC substrate); settings: human, P450 Baculosomes (recombinant CYP3A4), probe BOMCC (Vivid substrate)
CYP3A4, sequence (P08684 whole entry): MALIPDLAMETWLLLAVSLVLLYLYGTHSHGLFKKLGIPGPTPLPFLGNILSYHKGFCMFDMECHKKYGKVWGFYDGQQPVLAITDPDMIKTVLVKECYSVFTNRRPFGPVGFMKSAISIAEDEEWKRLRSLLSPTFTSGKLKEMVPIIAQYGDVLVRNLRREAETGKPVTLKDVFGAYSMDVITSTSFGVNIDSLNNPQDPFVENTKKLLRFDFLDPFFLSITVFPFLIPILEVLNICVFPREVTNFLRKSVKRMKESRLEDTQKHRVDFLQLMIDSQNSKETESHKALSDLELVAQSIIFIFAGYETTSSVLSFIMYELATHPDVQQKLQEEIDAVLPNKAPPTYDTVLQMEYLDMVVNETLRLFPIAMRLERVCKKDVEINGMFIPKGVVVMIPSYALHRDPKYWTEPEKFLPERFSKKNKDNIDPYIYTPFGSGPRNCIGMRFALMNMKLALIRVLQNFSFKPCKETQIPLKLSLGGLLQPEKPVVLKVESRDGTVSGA

## Cc1noc(-c2cccc(CN3C(=O)C4(COc5cc6c(cc54)OCCO6)c4ccccc43)c2)n1 (stereo not drawn) [Example 28, 1′-[3-(3-methyl-1,2,4-oxadiazol-5-yl)benzyl]-2,3-dihydrospiro[furo[2,3-g][1,4]benzodioxine-8,3′-indol]-2′(1′H)-one]
[1]
  IC50: 1 to 100 nM
other
  melting point: 80 to 89 °C
[2]
  inhibition at 10 µM: < 50%

## CCCCNC(=O)c1ccccc1CN1C(=O)C2(COc3cc4c(cc32)CCO4)c2ccccc21 (stereo not drawn) [Example 12.18, N-butyl-2-[(2′-oxo-5,6-dihydrospiro[benzo[1,2-b:5,4-b′]difuran-3,3′-indol]-1′(2′H)-yl)methyl]benzamide]
[1]
  IC50: 1000 to 10000 nM
other
  melting point: 176 to 178 °C
[2]
  inhibition at 10 µM: > 50%

## COc1cc2c(cc1C#N)C1(CO2)C(=O)N(Cc2ccccn2)c2ccccc21 (stereo not drawn) [Example 9.47, 6-methoxy-2′-oxo-1′-(pyridin-2-ylmethyl)-1′,2′-dihydrospiro[1-benzofuran-3,3′-indole]-5-carbonitrile]
[1]; activity level class
  IC50: 1000 to 10000 nM
other
  melting point: 187 to 189 °C
[2]
  inhibition at 10 µM: > 50%

## COc1ccc(CN2C(=O)C3(COc4cc5c(cc43)OCCO5)c3ccccc32)cc1OC (stereo not drawn) [Example 4.46, 1′-(3,4-dimethoxybenzyl)-2,3-dihydrospiro[furo[2,3-g][1,4]benzodioxine-8,3′-indol]-2′(1′H)-one]
[1]; activity level class
  IC50: 1 to 100 nM
other
  melting point: 209 to 211 °C
[2]
  inhibition at 10 µM: > 50%

## Cc1ccc(C)c(NC(=O)CN2C(=O)C3(COc4cc5c(cc43)CCO5)c3ccccc32)c1 (stereo not drawn) [Example 12.53, N-(2,5-dimethylphenyl)-2-(2′-oxo-5,6-dihydrospiro[benzo[1,2-b:5,4-b′]difuran-3,3′-indol]-1′(2′H)-yl)acetamide]
[1]
  IC50: 1000 to 10000 nM
other
  melting point: 250 to 252 °C
[2]
  inhibition at 10 µM: < 50%

## O=C1N(CC2CN(Cc3ccccc3)CCO2)c2ccccc2C12COc1cc3c(cc12)OCCO3 (stereo not drawn) [Example 9.60, 1′-[(4-benzylmorpholin-2-yl)methyl]-2,3-dihydrospiro[furo[2,3-g][1,4]benzodioxine-8,3′-indol]-2′(1′H)-one]
[1]
  IC50: 100 to 1000 nM
other
  melting point: 88 to 100 °C
[2]
  inhibition at 10 µM: > 50%

## O=C1N(Cc2cccc(C(F)(F)F)c2)c2ccccc2C12COc1cc3c(cc12)OCCO3 (stereo not drawn) [Example 7.1, 1′-[3-(trifluoromethyl)benzyl]-2,3-dihydrospiro[furo[2,3-g][1,4]benzodioxine-8,3′-indol]-2′(1′H)-one]
[1]; activity level class
  IC50: 1 to 100 nM
other
  melting point: 131 to 134 °C
[2]
  inhibition at 10 µM: < 50%

## O=C1N(Cc2nc3ncccc3o2)c2ccccc2C12COc1cc3c(cc12)OCO3 (stereo not drawn) [Example 6.8, 1′-([1,3]oxazolo[4,5-b]pyridin-2-ylmethyl)spiro[furo[2,3-f][1,3]benzodioxole-7,3′-indol]-2′(1′H)-one]
[1]; activity level class
  IC50: 1 to 100 nM
other
  melting point: 202 to 204 °C
[2]
  inhibition at 10 µM: < 50%

## O=C1N(Cn2nc3ccccc3n2)c2ccccc2C12COc1cc3c(cc12)CCO3 (stereo not drawn) [Example 9.13, 1′-(2H-benzotriazol-2-ylmethyl)-5,6-dihydrospiro[benzo[1,2-b:5,4-b′]difuran-3,3′-indol]-2′(1′H)-one]
[1]; activity level class
  IC50: 1 to 100 nM
other
  melting point: 102 to 105 °C
[2]
  inhibition at 10 µM: > 50%

## CC(C)CCN1C(=O)C2(COc3cc4c(cc32)OCCO4)c2c1ccc1ncsc21 (stereo not drawn) [Example 2.24, 6′-isopentyl-3,7-dihydro-2H-spiro[benzofuro[5,6-b][1,4]dioxine-8,8′-thiazolo[5,4-e]indol]-7′(6′H)-one]
[1]; activity level class
  IC50: 1 to 100 nM
other
  melting point: 169 to 171 °C
[2]
  inhibition at 10 µM: > 50%

## C[C@H](O)CN1C(=O)C2(COc3cc4c(cc32)CCO4)c2ccccc21 (stereo partly drawn) [Example 14, 1′-[(2S)-2-hydroxypropyl]-5,6-dihydrospiro[benzo[1,2-b:5,4-b′]difuran-3,3′-indol]-2′(1′H)-one]
[1]
  IC50: 100 to 1000 nM
other
  melting point: 171 to 174 °C
[2]
  inhibition at 10 µM: < 50%

## O=C1N(Cc2noc(C(F)(F)F)n2)c2cccc(Cl)c2C12COc1cc3c(cc12)OCO3 (stereo not drawn) [Example 11.19, 4′-chloro-1′-{[5-(trifluoromethyl)-1,2,4-oxadiazol-3-yl]methyl}spiro[furo[2,3-f][1,3]benzodioxole-7,3′-indol]-2′(1′H)-one]
[1]
  IC50: 1 to 100 nM
other
  melting point: 138 to 140 °C
[2]
  inhibition at 10 µM: > 50%

## N#Cc1ccc(CN2C(=O)C3(COc4cc5c(cc43)CCO5)c3ccccc32)cc1 (stereo not drawn) [Example 4.23, 4-((2′-oxo-5,6-dihydro-2H-spiro[benzofuro[6,5-b]furan-3,3′-indoline]-1′-yl)methyl)benzonitrile]
[1]; activity level class
  IC50: 1 to 100 nM
other
  melting point: 69 to 71 °C
[2]
  inhibition at 10 µM: < 50%

## O=C1N(C(c2ccccc2)c2ccccc2)c2ccccc2C12COc1cc3c(cc12)OCCO3 (stereo not drawn) [Example 2.11, 1′-(diphenylmethyl)-2,3-dihydrospiro[furo[2,3-g][1,4]benzodioxine-8,3′-indol]-2′(1′H)-one]
[1]; activity level class
  IC50: 1000 to 10000 nM
other
  melting point: 183 to 185 °C
[2]
  inhibition at 10 µM: < 50%

## O=C1N(C[C@H]2CCCO2)c2ccccc2C12COc1cc3c(cc12)OCCCO3 (stereo partly drawn) [Example 8.11, 1′-[(2R)-tetrahydrofuran-2-ylmethyl]-3,4-dihydro-2H-spiro[furo[2,3-h][1,5]benzodioxepine-9,3′-indol]-2′(1′H)-one]
[1]; activity level class
  IC50: 1000 to 10000 nM
other
  melting point: 134 to 138 °C
[2]
  inhibition at 10 µM: < 50%

## O=C1Nc2ccccc2C12COc1cc(F)c(F)cc12 (stereo not drawn) [Example 3.44, 5,6-difluorospiro[1-benzofuran-3,3′-indol]-2′(1′H)-one]
[1]; activity level class
  IC50: 1000 to 10000 nM
other
  melting point: > 200 °C
[2]
  inhibition at 10 µM: > 50%

## O=C1N(Cc2ccc(-c3ccccn3)cc2)c2ccccc2C12COc1cc3c(cc12)CCO3 (stereo not drawn) [Example 9.4, 1-(4-pyridin-2-ylbenzyl)-5,6-dihydrospiro[benzo[1,2-b:5,4-b′]difuran-3,3′-indol]-2′(1′H)-one]
[1]; activity level class
  IC50: 100 to 1000 nM
other
  melting point: 217 to 219 °C
[2]
  inhibition at 10 µM: < 50%

## O=C1N(C(c2ccccc2)c2ccccc2)c2ccccc2C12COc1cc(F)c(F)cc12 (stereo not drawn) [Example 2.61, 1′-(diphenylmethyl)-5,6-difluorospiro[1-benzofuran-3,3′-indol]-2′(1′H)-one]
[1]; activity level class
  IC50: ≥ 10000 nM
other
  melting point: 213 to 216 °C
[2]
  inhibition at 10 µM: < 50%

## O=C1Nc2cccc(Cl)c2C12COc1cc3c(cc12)CCO3 (stereo not drawn) [Example 3.1, 4′-chloro-5,6-dihydrospiro[benzo[1,2-b:5,4-b′]difuran-3,3′-indol]-2′(1′H)-one]
[1]; activity level class
  IC50: 1 to 100 nM
other
  melting point: > 200 °C
[2]
  inhibition at 10 µM: > 50%

## CCOC(=O)CN1C(=O)C2(COc3cc4c(cc32)OCCO4)c2ccccc21 (stereo not drawn) [Example 9.44, ethyl (2′-oxo-2,3-dihydrospiro[furo[2,3-g][1,4]benzodioxine-8,3′-indol]-1′(2′H)-yl)acetate]
[1]; activity level class
  IC50: 1 to 100 nM
other
  melting point: 58 to 59 °C
[2]
  inhibition at 10 µM: < 50%

## Cc1nc2cc3c(cc2o1)C1(CO3)C(=O)Nc2ccccc21 (stereo not drawn) [Example 3.12, 2-methylspiro[furo[2,3-f][1,3]benzoxazole-7,3′-indol]-2′(1′H)-one]
[1]; activity level class
  IC50: ≥ 10000 nM
other
  melting point: 242 to 244 °C
[2]
  inhibition at 10 µM: < 50%

## Cc1nc2cc3c(cc2s1)C1(CO3)C(=O)Nc2ccccc21 (stereo not drawn) [Example 1, 2-methylspiro[furo[2,3-f][1,3]benzothiazole-7,3′-indol]-2′(1′H)-one]
[1]; activity level class
  IC50: 1000 to 10000 nM
other
  melting point: > 250 °C
[2]
  inhibition at 10 µM: < 50%

## O=C1N(Cc2ccc(Cl)s2)c2ccccc2C12COc1ccc(OCc3ccccc3)cc12 (stereo not drawn) [Example 1.4, 5-(benzyloxy)-1′-[(5-chloro-2-thienyl)methyl]spiro[1-benzofuran-3,3′-indol]-2′(1′H)-one]
[1]; activity level class
  IC50: 1000 to 10000 nM
other
  melting point: 132 to 135 °C
[2]
  inhibition at 10 µM: > 50%

## CN1C(=O)[C@@]2(COc3cc4c(cc32)OCO4)c2c(-c3ccoc3)cccc21 [Example 16.61, (7S)-4′-furan-3-yl-1′-methylspiro[furo[2,3-f][1,3]benzodioxole-7,3′-indol]-2′(1′H)-one]
[1]
  IC50: 1 to 100 nM
other
  melting point: 144 to 145 °C
[2]
  inhibition at 10 µM: > 50%

## O=C1N(Cc2ncccc2F)c2ccccc2[C@]12COc1cc3c(cc12)OCCO3 [Example 4.108, (8S)-1′-[(3-fluoropyridin-2-yl)methyl]-2,3-dihydrospiro[furo[2,3-g][1,4]benzodioxine-8,3′-indol]-2′(1′H)-one]
[1]; activity level class
  IC50: 1 to 100 nM
other
  melting point: 125 to 126 °C
[2]
  inhibition at 10 µM: < 50%

## O=C1Nc2cccc(F)c2C12COc1cc3c(cc12)OCCO3 (stereo not drawn) [Example 3.33, 4′-fluoro-2,3-dihydrospiro[furo[2,3-g][1,4]benzodioxine-8,3′-indol]-2′(1′H)-one]
[1]; activity level class
  IC50: 1 to 100 nM
other
  melting point: 282 to 285 °C
[2]
  inhibition at 10 µM: < 50%

## COc1cc2c(cc1C)[C@@]1(CO2)C(=O)Nc2ccccc21 [Example 3.25, (3S)-6-methoxy-5-methylspiro[1-benzofuran-3,3′-indol]-2′(1′H)-one]
[1]; activity level class
  IC50: 1000 to 10000 nM
other
  melting point: > 250 °C
[2]
  inhibition at 10 µM: < 50%

## O=C1N(CC2CNCCO2)c2ccccc2C12COc1cc3c(cc12)OCCO3 (stereo not drawn) [Example 11.102, 1-(morpholin-2-ylmethyl)-2,3-dihydrospiro[furo[2,3-g][1,4]benzodioxine-8,3′-indol]-2′(1′1-1)-one]
[1]
  IC50: 1000 to 10000 nM
other
  melting point: 154 to 159 °C
[2]
  inhibition at 10 µM: < 50%

## CC(C)(C)OC(=O)N1C(=O)C2(COc3cc4c(cc32)OCCO4)c2ccccc21 (stereo not drawn) [Example 18.2, tert-butyl 2′-oxo-2,3-dihydrospiro[furo[2,3-g][1,4]benzodioxine-8,3′-indole]-1′(2′H)-carboxylate]
[1]
  IC50: 100 to 1000 nM
other
  melting point: 171 to 172 °C
[2]
  inhibition at 10 µM: < 50%
